Results on 24 compounds are retold here after US7063946B2, “Methods, reagents, kits and apparatus for protein function analysis” (Meso Scale Technologies, LLC., priority 2001, dated 2006).

Assay [1] has as its system autophosphorylation (phosphotyrosine). Nature of the assay: In vitro kinase library screen: autophosphorylation. It counts as biochemical. On the procedure: Proteins were produced from DNA plasmids of Mock Luciferase, Promega, tyrosine kinase clone Spleen Tyrosine kinase (SYK, IMAGE ID# 3870426) and Eph receptor-A7 (EphA7, IMAGE ID# 3991628) (Incyte Genomics, CA) and immobilized on streptavidin or avidin coated NPT-IPR plates as described in the Example 7. To promote autophosphorylation in these immobilized and purified proteins, Mn++ ions were added in a 50 μl reaction containing 5 mM MgCl2, 5 mM MnCl2, 100 μM ATP, 25 mM Tris-HCl buffer pH 7.4, 0.05 mM Na3VO4, 0.004% TritonX-100, 2 mM DTT and EDTA-free protease inhibitor (Roche Molecular Biochemicals). This mixture was incubated with shaking at room temperature overnight to allow autophosphorylation. Following this incubation, wells were washed 2 times with TT-buffer and 2 times with water. Following this step, 50 ng Sulfo-TAG labeled anti-phosphotyrosine in buffer containing 25 mM Tris-HCl buffer pH 7.4, 5 mM MgCl2, 0.05 mM Na3VO4, 0.004% TritonX-100, 2 mM DTT and 0.05% IgG in a final volume of 50 μl was added followed by incubation at room temperature for 45 min. The unbound reagents were removed by one time washing with water, and the TAG label was detected in presence of 150 μl IPR assay buffer (0.4 mM Gly—Gly buffer, pH 7.8, 1 mM EDTA, 0.1 M TPA). The ECL signals were measured using an imaging plate reader.
(§1) Proteins were produced in an in vitro transcription and translation reaction as described in the Materials and Methods. […] The reaction was stopped by mixing with BB2 buffer. Biotinylated proteins from 50 μl of the mixture (representing 0.5 μl to 5 μl of TnT reaction) were immobilized onto streptavidin or avidin coated NPT-IPR plates by shaking at room temperature for 45 min. The activity of the immobilized protein towards pEY or autophosphorylation was further assayed by the methods described in examples 7 and 8.

In another assay the test system is pEY. In words: In vitro kinase library screen: activity towards pEY. It counts as biochemical. To be noted: 5 ul of expressed protein. On the procedure:
Proteins were produced in an in vitro transcription and translation reaction. […] The unbound components of the reaction containing endogenous kinases were removed by three washes with TT-buffer (25 mM Tris-HCl buffer pH 7.4 and 0.004% Triton), two five minutes washings with high-salt wash buffer (25 mM Tris-HCl buffer pH 7.4, 0.004% Triton, 1M NaCl and 5 mM DTT) and 3 more washes with TT-buffer. To these immobilized and purified proteins a tyrosine kinase substrate, 5 nM pEY (poly Glu-Tyr, Sigma, MO), was added in a 50 μl reaction solution containing 5 mM MgCl2, 5 mM MnCl2, 100 μM ATP, 25 mM Tris-HCl buffer pH 7.4, 0.05 mM Na3VO4, 0.004% TritonX-100, 2 mM DTT and EDTA-free protease inhibitor (Roche Molecular Biochemicals). This mixture was incubated with shaking at room temperature overnight to allow phosphorylation of the pEY substrate by the immobilized kinases. Following this incubation, 45 μl of this mixture was transferred to a streptavidin or avidin-coated NPT IPR plate coated with biotinylated anti-phosphotyrosine antibody (PY20, Zymed labs, CA) followed by incubation for 30 minutes at room temperature to allow the binding of the phosphorylated pEY substrate to the PY20 coated NPT plate. Following this binding step, 50 ng Sulfo-TAG labeled anti-phosphotyrosine in buffer containing 25 mM Tris-HCl buffer pH 7.4, 5 mM MgCl2, 0.05 mM Na3VO4, 0.004% TritonX-100, 2 mM DTT and 0.05% IgG was added followed by incubation at room temperature for 30 mm. The unbound reagents were removed by one time washing with water, and the TAG label was detected in presence of 150 μl IPR assay buffer (0.4 mM Gly-Gly buffer, pH 7.8, 1 mM EDTA, 0.1 M TPA). The ECL signals were measured using an imaging plate reader.
as §1

The subject of assay [2] is pooled phosphopeptide:BSA conjugates (Pools A-D). In words: Coded multiplex phosphopeptide binding assay with pooled peptide:BSA conjugates on 4 spots. The text has this: To prepare the Multi-Spot IPR plates, in this example we made use of pools of the peptide:BSA conjugates to coat each of 4 spots per well in a 96 well plate. To achieve this we made the following pools; • Pool A; EGFR-pTyr1148, IkBa-24ppC, Myc-p58Tp62S. • Pool B; EGFR-pTyr992, EGFR-pTyr1148, Smad3C. • Pool C; EGFR-pTyr1068, IkBa-24ppC, Smad3C. • Pool D; EGFR-pTyr992, EGFR-pTyr1068, Myc-p58Tp62S.
This combination of the various peptides results in any single peptide being present in two pools. Each of these four pools is then spotted on to a unique spot in a 4 spot array. In this way any single binding protein with specificity for only one of the peptides would bind to two spots; the identity of the two spots would allow the identification of the peptide involved in the binding reaction.
Typically approximately 120 fmole of peptide:BSA conjugate in 0.25 μl was deposited on each spot of a 4-spot multi-array IPR plates using a BioDot Dispenser (Bio-Dot Inc., vIrvine Calif.). At this stage, the plates were dried then used or stored under desiccated condition. A few hours prior to usage, the plates were rehydrated and blocked with 3% BSA, in PBS.
To test the system the following EST clones IMAGE # 3491843, 4237375, 4398016, 4419252, 3872466, 3907115 were obtained. These clones express the following genes βTRCP1, βTRCP2, Grb2, PLCγ, CBP and Shc1, respectively. […] These DNAs were used to produce proteins as described in the Materials and Methods. Proteins were transferred to a well of the 4 spot peptide-coated and BSA blocked ECL plates. The binding assay (using Sulfo-TAG labeled streptavidin as a detection agent) was carried our according to the procedures described in Example 11.

For assay [3], the system named is tyrosine kinases reported to be the target of each inhibitor. To be noted: read-out: reported IC50 concentration (1× concentration); for the kinase reported to be the target of the inhibitor; cited from earlier work.

With “3156953: IMAGE clone protein: Wee1, wee 1 homolog (S. pombe) [compound 3156953]”, the ECL signal in assay [1] is 27,452. In the assay with pEY, this compound came in with an HTS signal of 981.
For “3601246: IMAGE clone protein: FRK, B-cell src-homology tyrosine kinase [compound 3601246]”, in that order: 28,243 and 15,235.
For the compound “3866791: IMAGE clone protein: JAK1, Janus kinase 1 [compound 3866791]”, in the assay on pEY, the HTS signal is given as 729.
For “3896359: IMAGE clone protein: FGFR1, fibroblast growth factor receptor 1 (fms-related TK2) [compound 3896359]”, the ECL signal in assay [1] is reported as 7,696. Besides, the HTS signal with pEY is listed as 2,339.
“3921724: IMAGE clone protein: FGR, FYN oncogene related to SRC [compound 3921724]”: the ECL signal in assay [1] is on record as 241,697. Further, in the assay with pEY, the HTS signal is recorded as 93,081.
For “3982920: IMAGE clone protein: Clk4, CDC like kinase 4 [compound 3982920]”, in that order: 192,787 and 2,244.
Consider “3989782: IMAGE clone protein: Yes, Yamaguchi sarcoma viral (v-yes) oncogene homolog [compound 3989782]”, for which, in assay [1], the ECL signal was 4,542. Also, in the assay on pEY, the HTS signal is 2,208.
For “3995512: IMAGE clone protein: CLK2, CDC-like kinase 2 [compound 3995512]”, the ECL signal in assay [1] is given as 20,748. This compound gave an HTS signal in the assay with pEY of 634.
On to “4036253: IMAGE clone protein: CLK3, CDC-like kinase 3 [compound 4036253]”, for which the ECL signal in assay [1] is 42,712. Further, the HTS signal in the assay with pEY stood at 704.
With “4037899: IMAGE clone protein: FGFR1, fibroblast growth factor receptor 1 [compound 4037899]”, the ECL signal in assay [1] is reported as 240,550. The HTS signal in the assay on pEY is listed as 450,413.
Turning to “4181574: IMAGE clone protein: NTRK3, neurotrophic tyrosine kinase [compound 4181574]”, in assay [1], the ECL signal is recorded as 55,017. The HTS signal in the assay with pEY was 36,515.
For “4191610: IMAGE clone protein: LCK, lymphocyte protein tyrosine kinase [compound 4191610]”, in that order: 24,183 and 3,110.
For “4343428: IMAGE clone protein: PTK2B, protein tyrosine kinase 2 beta [compound 4343428]”, in that order: 274,742 and 57,486.
Regarding “4363897: IMAGE clone protein: FGR, FYN oncogene related to SRC [compound 4363897]”, in assay [1], the ECL signal is 44,220. Besides, in the assay with pEY, the HTS signal is listed as 402,243.
Consider “4387232: IMAGE clone protein: CLK1, CDC-like kinase 1 [compound 4387232]”, for which the ECL signal in assay [1] is on record as 423,938. Besides, the HTS signal in the assay with pEY is listed as 5,109.
For the compound “4398016: IMAGE clone protein: Grb2 [compound 4398016]”, in assay [2], the “Code (pattern of positive spots)” value was “C, D” and the “Peptide determined from code” value is “EGFR-pTyr1068”. Further, the “ECL signal, spot A” value in assay [2] (Pool A, EGFR-pTyr1148, IkBa-24ppC, Myc-p58Tp62S) is given as 36. Also, the “ECL signal, spot B” value in assay [2] (Pool B, EGFR-pTyr992, EGFR-pTyr1148, Smad3C) came to 38. Moreover, the “ECL signal, spot C” value in assay [2] (Pool C, EGFR-pTyr1068, IkBa-24ppC, Smad3C) came out at 509. Moreover, in assay [2] (Pool D, EGFR-pTyr992, EGFR-pTyr1068, Myc-p58Tp62S), the “ECL signal, spot D” value turned out to be 386.
For “4419031: IMAGE clone protein: BLK, B lymphoid tyrosine kinase [compound 4419031]”, the ECL signal in assay [1] is reported as 146,775. For the same compound, the HTS signal in the assay on pEY is given as 37,907.
On to “4419700: IMAGE clone protein: LCK, lymphocyte-specific protein tyrosine kinase [compound 4419700]”, for which the ECL signal in assay [1] was 7,230. Also, in the assay with pEY, the HTS signal was determined as 898.
For the compound “4419973: IMAGE clone protein: FGR, Gardner-Rasheed feline sarcoma viral (v-fgr) oncogene homolog [compound 4419973]”, the ECL signal in assay [1] is 117,395. Also, in the assay with pEY, the HTS signal was 104,946.
For “4471986: IMAGE clone protein: ALK, anaplastic lymphoma kinase (Ki-1) [compound 4471986]”, in that order: 4,069 and 905.
As to “4515877: IMAGE clone protein: Frk, fyn-related kinase [compound 4515877]”, in assay [1], the ECL signal is recorded as 148,139. Moreover, in the assay with pEY, the HTS signal is 271,855.
With `COc1cc2ncnc(Nc3cccc(Cl)c3)c2cc1OC` [AG-1478], the IC50 in assay [3] was 3 nM.
As to `CCOc1cc2ncnc(Nc3cccc(Br)c3)c2cc1OCC` [Compound-56], the IC50 in assay [3] is 0.006 nM.
With `CC(C)c1cc(/C=C(\C#N)C(=O)NCCCc2ccccc2)cc(C(C)C)c1O` [SU-1498], the IC50 in assay [3] is 700 nM.
